This assay concerns the target T1, IGF1R (Homo sapiens, UniProt P08069).
T1 construct: endogenous in cells; host or cells: HT29 and HCT116 CRC cell lines
As to the kind of experiment: Meso Scale Discovery (MSD) assay of phosphorylated IGF1R. The class given is cell-based. The settings on record: HT29 and HCT116; 72 h; PQIP 0.4 μmol/L, SN38 0.004 μmol/L, Oxaliplatin 1.0 μmol/L. The protocol: Detection of IGF1R using Meso Scale Discovery assays (MSD): HT29 and HCT116 CRC cell lines were seeded into 6-well plates, allowed to attach for 24 hours and exposed to PQIP and chemotherapy (SN38, or Oxaliplatin) alone or in combination for 72 h. Following exposure, cells were rinsed with PBS and scraped into RIPA lysis buffer containing protease inhibitors, EDTA, NaF, and sodium orthovanadate. Total protein was quantified using the BioRad Dc Protein Assay (BioRad, Hercules, Calif.). Fifty micrograms of protein in 25 μL was added per well for MSD detection of phosphorylated IGF-1R according to manufacturer's instructions (Meso Scale Discovery, Gaithersburg, Md.).
Cells were exposed to PQIP (0.4 μmol/L) and chemotherapy (SN38 0.004 μmol/L, or Oxaliplatin 1.0 μmol/L) alone or in combination for 72 h. Protein was extracted and analyzed for phospho/total IGF1R levels using a Meso Scale Discovery (MSD; Gaithersburg, Md. 20877) assay.

T1 sequence (P08069 31-1367): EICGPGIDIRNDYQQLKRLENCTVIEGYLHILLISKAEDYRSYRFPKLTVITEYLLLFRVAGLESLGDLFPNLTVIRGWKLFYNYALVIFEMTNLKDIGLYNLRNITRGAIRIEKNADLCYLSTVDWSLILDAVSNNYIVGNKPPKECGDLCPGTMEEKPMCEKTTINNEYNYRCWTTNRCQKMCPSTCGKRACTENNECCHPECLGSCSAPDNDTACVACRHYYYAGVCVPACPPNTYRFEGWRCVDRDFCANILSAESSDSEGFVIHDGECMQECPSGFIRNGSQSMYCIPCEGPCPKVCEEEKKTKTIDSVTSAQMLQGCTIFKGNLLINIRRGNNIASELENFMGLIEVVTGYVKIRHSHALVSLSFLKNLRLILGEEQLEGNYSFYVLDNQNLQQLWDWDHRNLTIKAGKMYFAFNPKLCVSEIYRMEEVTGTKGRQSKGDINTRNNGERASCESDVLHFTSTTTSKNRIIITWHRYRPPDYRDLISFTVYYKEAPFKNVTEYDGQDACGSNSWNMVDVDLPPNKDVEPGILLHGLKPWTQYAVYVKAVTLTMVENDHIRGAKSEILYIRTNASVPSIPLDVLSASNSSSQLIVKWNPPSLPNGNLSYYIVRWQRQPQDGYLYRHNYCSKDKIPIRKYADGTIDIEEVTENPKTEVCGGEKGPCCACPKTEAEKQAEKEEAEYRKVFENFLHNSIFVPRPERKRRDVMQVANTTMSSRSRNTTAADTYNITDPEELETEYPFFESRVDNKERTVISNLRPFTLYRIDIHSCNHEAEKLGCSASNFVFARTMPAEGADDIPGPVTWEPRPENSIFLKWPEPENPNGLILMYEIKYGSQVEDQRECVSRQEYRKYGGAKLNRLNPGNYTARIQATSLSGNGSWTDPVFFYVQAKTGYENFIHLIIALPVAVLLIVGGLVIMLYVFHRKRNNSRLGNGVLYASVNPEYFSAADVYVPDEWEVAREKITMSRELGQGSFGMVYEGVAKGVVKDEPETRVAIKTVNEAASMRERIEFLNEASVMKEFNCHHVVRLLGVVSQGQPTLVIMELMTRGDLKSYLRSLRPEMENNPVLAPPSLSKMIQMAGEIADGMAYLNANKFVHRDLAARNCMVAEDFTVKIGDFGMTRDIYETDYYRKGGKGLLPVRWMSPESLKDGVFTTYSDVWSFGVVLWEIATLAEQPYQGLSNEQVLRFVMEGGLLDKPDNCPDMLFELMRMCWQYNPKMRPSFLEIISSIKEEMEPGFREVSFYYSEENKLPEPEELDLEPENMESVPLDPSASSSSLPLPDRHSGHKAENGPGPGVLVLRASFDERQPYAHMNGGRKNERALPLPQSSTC

As to `O=C1[O][Pt]2([NH][C@@H]3CCCC[C@H]3[NH]2)[O]C1=O` [Oxaliplatin, reference compound], the “effect on phosphorylated IGF1R, agent alone” value is given as “no significant effect”.

Consider `CCc1c2c(nc3ccc(O)cc13)-c1cc3c(c(=O)n1C2)COC(=O)[C@]3(O)CC` [SN38, 7-Ethyl-10-hydroxy-camptothecin, reference compound], for which the “effect on phosphorylated IGF1R, agent alone” value is given as “no significant effect”.

(Values after patent US8163509B2, “Biological markers predictive of anti-cancer response to insulin-like growth factor-1 receptor kinase inhibitors” (The Regents of the University of Colorado, A Body Corporate, priority 2008, dated 2012).)
